Experimental data from BindingDB's records for doi:10.1016/s0960-894x(01)00019-1 (Glaxowellcome Medicines Research Centre, 2001).

Assay: Inhibitory activity against influenza A sialidase (Aichi)

**Q.** For `CCCN(CCC)C(=O)[C@@H]1OC(C(=O)O)=C[C@@H](N)[C@H]1NC(C)=O` [(4R,5R,6R)-5-Acetylamino-4-amino-6-dipropylcarbamoyl-5,6-dihydro-4H-pyran-2-carboxylic acid], which IC50 is on record?
**A.** 140 nM

**Q.** For `CCCN(CCc1ccccc1)C(=O)[C@@H]1OC(C(=O)O)=C[C@@H](O)[C@H]1NC(C)=O` [(4R,5R,6R)-5-Acetylamino-4-hydroxy-6-(phenethyl-propyl-carbamoyl)-5,6-dihydro-4H-pyran-2-carboxylic acid], which IC50 is on record?
**A.** 17 nM

**Q.** Which IC50 does the source give for `CCCN(CCc1ccccc1)C(=O)[C@@H]1OC(C(=O)O)=C[C@H](N)[C@H]1NC(=O)C1CC1` [(4S,5R,6R)-4-Amino-5-(cyclopropanecarbonyl-amino)-6-(phenethyl-propyl-carbamoyl)-5,6-dihydro-4H-pyran-2-carboxylic acid] here?
**A.** 50 nM

**Q.** For `CCCC(=O)N[C@@H]1[C@@H](N)C=C(C(=O)O)O[C@H]1C(=O)N(CCC)CCc1ccccc1` [(4S,5R,6R)-4-Amino-5-butyrylamino-6-(phenethyl-propyl-carbamoyl)-5,6-dihydro-4H-pyran-2-carboxylic acid], which IC50 is on record?
**A.** 43000 nM

**Q.** Which IC50 does the source give for `CCCN(CCc1ccccc1)C(=O)[C@@H]1OC(C(=O)O)=C[C@H](N)[C@H]1NC(=O)C(F)(F)F` [(4S,5R,6R)-4-Amino-6-(phenethyl-propyl-carbamoyl)-5-(2,2,2-trifluoro-acetylamino)-5,6-dihydro-4H-pyran-2-carboxylic acid] here?
**A.** 3 nM

**Q.** With `CCCN(CCc1ccccc1)C(=O)[C@@H]1OC(C(=O)O)=C[C@H](N)[C@H]1NC(=O)CC` [(4S,5R,6R)-4-Amino-6-(phenethyl-propyl-carbamoyl)-5-propionylamino-5,6-dihydro-4H-pyran-2-carboxylic acid] as the compound, how does the IC50 read?
**A.** 0.7 nM

**Q.** For `CCCN(CCC)C(=O)[C@@H]1OC(C(=O)O)=C[C@H](N)[C@H]1NC(=O)C(F)(F)F` [(4S,5R,6R)-4-Amino-6-dipropylcarbamoyl-5-(2,2,2-trifluoro-acetylamino)-5,6-dihydro-4H-pyran-2-carboxylic acid], which IC50 is on record?
**A.** 0.3 nM

**Q.** For `CCCN(CCC)C(=O)[C@@H]1OC(C(=O)O)=C[C@H](N)[C@H]1NC(=O)C(C)C` [(4S,5R,6R)-4-Amino-6-dipropylcarbamoyl-5-isobutyrylamino-5,6-dihydro-4H-pyran-2-carboxylic acid], which IC50 is on record?
**A.** 17000 nM

**Q.** Which IC50 does the source give for `CCCN(CCC)C(=O)[C@@H]1OC(C(=O)O)=C[C@H](N)[C@H]1NS(C)(=O)=O` [(4S,5R,6R)-4-Amino-6-dipropylcarbamoyl-5-methanesulfonylamino-5,6-dihydro-4H-pyran-2-carboxylic acid] here?
**A.** 3000 nM

**Q.** Which IC50 does the source give for `CCCN(CCC)C(=O)[C@@H]1OC(C(=O)O)=C[C@H](N)[C@H]1NC(=O)CC` [(4S,5R,6R)-4-Amino-6-dipropylcarbamoyl-5-propionylamino-5,6-dihydro-4H-pyran-2-carboxylic acid] here?
**A.** 5 nM

**Q.** For `CCCN(CCc1ccccc1)C(=O)[C@@H]1OC(C(=O)O)=C[C@H](O)[C@H]1NC(C)=O` [(4S,5R,6R)-5-Acetylamino-4-hydroxy-6-(phenethyl-propyl-carbamoyl)-5,6-dihydro-4H-pyran-2-carboxylic acid], which IC50 is on record?
**A.** 7 nM

**Q.** Which IC50 does the source give for `CCCN(CCC)C(=O)[C@@H]1OC(C(=O)O)=C[C@H](NCC)[C@H]1NC(C)=O` [(4S,5R,6R)-5-Acetylamino-6-dipropylcarbamoyl-4-ethylamino-5,6-dihydro-4H-pyran-2-carboxylic acid] here?
**A.** 420 nM

**Q.** For `CCCN(CCC)C(=O)[C@@H]1OC(C(=O)O)=C[C@H](NC)[C@H]1NC(C)=O` [(4S,5R,6R)-5-Acetylamino-6-dipropylcarbamoyl-4-methylamino-5,6-dihydro-4H-pyran-2-carboxylic acid], which IC50 is on record?
**A.** 240 nM

**Q.** Which IC50 does the source give for `CCCN(CCc1ccccc1)C(=O)[C@@H]1OC(C(=O)O)=CC[C@H]1NC(C)=O` [(5R,6R)-5-Acetylamino-6-(phenethyl-propyl-carbamoyl)-5,6-dihydro-4H-pyran-2-carboxylic acid] here?
**A.** 7 nM
